“Also recorded” adds a separate entry of the source.

Data on 1 molecule can be found in patent US6596500B1, “Binding of retinoids to M6P/IGF-II receptor” (The General Hospital Corporation, priority 1998, dated 2003).

The test system of this assay is neonatal rat fibroblasts. In words: Immunofluorescence of cathepsin B distribution in fibroblasts. The format is cell-based. The following applies: RA 1 μM for 3 h; neonatal rat fibroblasts. An excerpt: FIGS. 8A and 8B are photomicrographs showing effect of retinoic acid on the distribution of cathepsin B in neonatal rat fibroblasts. […] The enzyme was found mainly in the perinuclear area. […] Bar represents 4 μm.
Since biosynthetic transport of lysosomal enzymes from the TGN to endosomes/lysosomes is mainly mediated by the M6P/IGF2R (Sohar et al., 1998, Biochem. J. 330:903-908), an enhanced trafficking of the receptor should lead to an increased translocation of the M6P-containing lysosomal enzymes from the TGN to lysosomes. To test this, we examined the effect of RA on the intracellular distribution of cathepsin B, a lysosomal protease known to be transported in a M6P-dependent manner in fibroblasts (Hanewinkel et al., 1987, J. Diol. Chem. 262:12351-12355). […] The distribution was similar to that of M6P/IGF2R (shift from perinuclear area to cytoplasmic vesicles throughout the cytoplasm).
Intracellular Trafficking Materials Retinoic acid was obtained from Sigma Chem. Co. (St. Louis, Mo.). The synthetic retinoids used (AGN193109, TTNPB) were produced by Allergan Inc. (Irvine, Calif.). Stably-transfected P388D1 cells re-expressing the M6P/IGF2R were provided by Dr. William S. Sly (St. Louis University). The rabbit polyclonal antibody against the rat M6P/IGF-II receptor was a gift from Dr. R.G. MacDonald (University of Nebraska). […]

With `CC1=C(/C=C/C(C)=C/C=C/C(C)=C/C(=O)O)C(C)(C)CCC1` [RA, all-trans-retinoic acid], the “Intracellular distribution of cathepsin B” value is reported as “translocated from the perinuclear area to the cytoplasmic vesicles; also recorded: remarkable change in cathepsin B distribution”.
